2 molecules from patent US7638538B1, “Pharmaceutically active sulfonyl amino acid derivatives” (Laboratoires Serono S.A., priority 1999, dated 2009) can be followed below.

The structures appear in SMILES notation.

Common to all, as to type: biochemical
Test [1] has as its target ERK2 (Homo sapiens, UniProt P28482). The test can be described thus: ERK2 in vitro kinase assay (SPA, myelin basic protein substrate). Here is the method: (§1) JNK 2 and 3 in vitro assays: JNK 2 and/or 3 assays are performed 96 well MTT plates, by incubation of 0.5 μg of recombinant, pre-activated GST-JNK2 with 1 μg of recombinant, biotinylated GST-c-Jun and 2 μM ^33γ-ATP (2 nCi/μl), in the presence or absence of sulfonyl amino acid inhibitors and in a reaction volume of 150 μl containing 50 mM Tris-HCl, pH 8.0; 10 mM MgCl2; 1 mM Dithiothreitol, and 100 μM NaVO4. The incubation is carried for 120 min. at R.T and stopped up by addition of 200 μl of a solution containing 250 μg of Streptavidine-coated SPA beads (Amersham, Inc.)*, 5 mM EDTA, 0.1% Trinton X-100 and 50 μM ATP, in phosphate saline buffer. After incubation for 60 minutes at RT, beads are sedimented by centrifugation at 1500×g for 5 minutes, resuspended in 200 μl of PBS containing 5 mM EDTA, 0.1% Triton X-100 and 50 μM ATP and the radioactivity measured in a scintillation β counter, following sedimentation of the beads as described above. By substituting GST-c-Jun for biotinylated GST-1ATF2 or myelin basic protein, this assay can be used to measure inhibition of preactivated p38 and ERK MAP Kinases, respectively.

Test [2] addresses JNK3 (Homo sapiens, UniProt P53779). Briefly: JNK3 in vitro kinase assay (SPA, GST-c-Jun substrate). Here is the method:
as §1

In test [3] the target is GST-JNK2 (Homo sapiens, UniProt P45984). The test can be described thus: JNK2 in vitro kinase assay (SPA, GST-c-Jun substrate). The protocol: as §1
Test [4] addresses p38 (Homo sapiens, UniProt Q16539). Briefly: p38 in vitro kinase assay (SPA, GST-ATF2 substrate). Here is the method:
as §1

By IC50 is commonly meant the midpoint of a concentration-inhibition curve. Lower therefore signals higher potency.

GST-JNK2, sequence (P45984 whole entry): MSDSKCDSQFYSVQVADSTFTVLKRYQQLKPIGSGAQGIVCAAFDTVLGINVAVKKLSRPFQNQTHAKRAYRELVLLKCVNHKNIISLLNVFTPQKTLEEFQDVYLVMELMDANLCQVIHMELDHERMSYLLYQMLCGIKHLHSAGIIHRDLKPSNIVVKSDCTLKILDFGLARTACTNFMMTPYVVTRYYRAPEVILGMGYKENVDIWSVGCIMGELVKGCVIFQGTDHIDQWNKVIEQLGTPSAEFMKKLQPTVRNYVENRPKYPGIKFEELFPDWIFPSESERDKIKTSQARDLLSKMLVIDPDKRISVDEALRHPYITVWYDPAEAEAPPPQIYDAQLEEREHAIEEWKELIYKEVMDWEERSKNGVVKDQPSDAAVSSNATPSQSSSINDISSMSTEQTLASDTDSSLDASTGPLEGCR
p38, sequence (Q16539 whole entry): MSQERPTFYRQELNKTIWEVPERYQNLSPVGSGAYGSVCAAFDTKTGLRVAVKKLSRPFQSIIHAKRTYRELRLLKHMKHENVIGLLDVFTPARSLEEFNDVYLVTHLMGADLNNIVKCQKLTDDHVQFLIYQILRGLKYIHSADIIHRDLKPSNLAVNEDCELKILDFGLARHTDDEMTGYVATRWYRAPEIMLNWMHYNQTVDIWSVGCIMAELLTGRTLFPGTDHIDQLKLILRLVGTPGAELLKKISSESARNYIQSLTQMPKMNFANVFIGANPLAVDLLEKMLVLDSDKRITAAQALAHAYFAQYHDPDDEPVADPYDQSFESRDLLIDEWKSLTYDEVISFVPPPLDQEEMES
JNK3, sequence (P53779 whole entry, species assumed): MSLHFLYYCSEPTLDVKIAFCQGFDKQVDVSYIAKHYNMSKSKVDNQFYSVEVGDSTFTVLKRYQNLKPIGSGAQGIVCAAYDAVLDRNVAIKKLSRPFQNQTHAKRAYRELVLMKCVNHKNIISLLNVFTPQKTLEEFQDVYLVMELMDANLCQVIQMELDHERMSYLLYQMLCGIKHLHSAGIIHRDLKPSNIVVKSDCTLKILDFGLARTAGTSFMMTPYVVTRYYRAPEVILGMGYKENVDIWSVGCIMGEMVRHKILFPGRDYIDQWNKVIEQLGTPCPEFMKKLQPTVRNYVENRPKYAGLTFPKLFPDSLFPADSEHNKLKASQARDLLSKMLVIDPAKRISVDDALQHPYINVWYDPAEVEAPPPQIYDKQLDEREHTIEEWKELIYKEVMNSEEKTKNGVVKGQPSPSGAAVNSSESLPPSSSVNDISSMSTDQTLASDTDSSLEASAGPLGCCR
ERK2, sequence (P28482 whole entry, species assumed): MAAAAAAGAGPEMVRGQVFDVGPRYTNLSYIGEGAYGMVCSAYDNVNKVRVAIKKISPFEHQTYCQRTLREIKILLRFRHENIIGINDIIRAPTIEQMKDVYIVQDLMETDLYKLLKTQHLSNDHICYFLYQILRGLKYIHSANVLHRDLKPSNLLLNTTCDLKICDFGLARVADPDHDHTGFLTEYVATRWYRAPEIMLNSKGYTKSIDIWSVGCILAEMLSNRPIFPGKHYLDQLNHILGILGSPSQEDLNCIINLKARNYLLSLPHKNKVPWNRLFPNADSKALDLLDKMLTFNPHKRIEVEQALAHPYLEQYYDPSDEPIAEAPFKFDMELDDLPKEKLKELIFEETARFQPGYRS

Regarding `O=C(CNS(=O)(=O)c1ccc(CNC(=O)c2ccc(Cl)cc2)s1)Nc1cccc(S(=O)(=O)C(F)(F)F)c1` [Example 6, 4-chloro-N-[(5-{[(2-oxo-2-{3-[(trifluoromethyl)sulfonyl]anilino)ethyl)amino]sulfonyl}thien-2-yl)methyl]benzamide], the IC50 in test [1] is greater than 30000 nM; in test [2] it was 640 nM; in test [3], 1300 nM; in test [4] it was greater than 30000 nM.

Regarding `O=C(CNS(=O)(=O)c1ccc(CNC(=O)c2ccc(Cl)cc2)s1)NCCNc1ncc(C(F)(F)F)cc1Cl` [Example 1, 4chloro-N-({5-[({2-[(2-{[3-chloro-5-(trifluoromethyl)pyridin-2-yl]amino}ethyl)amino]-2-oxoethyl}amino)sulfonyl]thien-2-yl}methyl)benzamide], the half-maximal inhibitory concentration (IC50) in test [1] is greater than 30000 nM; in test [2], 1200 nM; in test [3], 2700 nM; in test [4] it was greater than 30000 nM.
